One assay deals with HT-29. Description: Cellular proliferation assay (Alamar blue), HT-29. The assay is classed as cell-based. The conditions noted are these: Homo sapiens, HT-29 cells, 72 hours with compound, 10% FCS, read-out: pIC50 HT-29 (converted). In short, it runs like this:
(§1)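 Proliferation was assessed over 72 h of compound treatment, following 24 h of seeding without compound, under 10% FCS, 37° C. and 5% CO2. Fluorescent resazurin product was measured and compared with control cells.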

In a further assay the test system is Colo205. Description: Cellular proliferation assay (Alamar blue), Colo205. The assay is classed as cell-based. The conditions noted are these: Homo sapiens, COLO 205, Colo205 cells, 72 hours with compound, 10% FCS, read-out: pIC50 Colo205 (converted). Summed up: as §1
The test system of a further assay is H1299. Description: Cellular proliferation assay (Alamar blue), H1299. Particulars: Homo sapiens, NCI-H1299, 72 h, H1299 cells, 72 hours with compound, 10% FCS, read-out: pIC50 H1299 (converted). The format is cell-based. In short, it runs like this: as §1
A general note: The colour change of resazurin is a common sign of viable cells or microbes.

The next assay deals with AuroraB (h) (Homo sapiens, UniProt Q96GD4). Description: Aurora-B human kinase assay (SPA). The format is biochemical. Particulars: read-out: AuroraB pIC50 (converted). Summed up: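 33P-phosphorylated biotin-substrate captured on streptavidin PVT SPA beads after EDTA-containing stop and imaged on Leadseeker. Reaction: 60 min at room temperature, Hepes pH 7.5 with Mg2+/Mn2+. Conditions: 0.5 μM ATP plus 2.2 nM [γ-33P]ATP, 3 μM substrate, 0.5 μg/ml human AuroraB.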

The test system of the next assay is H460. Description: Cellular proliferation assay (Alamar blue), H460. The assay is classed as cell-based. The conditions noted are these: Homo sapiens, NCI-H460, H460 cells, 72 hours with compound, 10% FCS, read-out: pIC50 H460 (converted). On the procedure: […] functional properties of these compounds was tested in cellular proliferation assays on a panel of different cell lines in the presence of 10% FCS serum (37° C. and 5% (v/v) CO2). In a first step these cells were seeded and incubated for 24 hours in the absence of compound. In the second step the cells were incubated for 72 hours with the compounds to be tested for 72 hours. The viable cell number was finally assessed in a standard Alamar blue cell viability assay.
The viable cell number was assessed by incubation for either 4 h (HCT-116, H1299, H460) 6 h (SKOV3, HT29, U87-MG, Colo205) or 24 h (A2780, PC3, MDA-MB-231, A549, MCF-7) with Alamar blue (Resazurin 9 μg/ml, K-Ferrocyanide 90 μM K-Ferricyanide 90 μM) and the converted fluorescent product was quantified on a fluorescent plate readed (544 nm/590 nm). Effect of the compounds is calculated as of on control cells.

For a further assay, the system named is DU-145. Description: Cellular proliferation assay (Alamar blue), DU-145. The assay is classed as cell-based. Particulars: Homo sapiens, DU-145 cells, 72 hours with compound, 10% FCS, read-out: pIC50 DU-145 (converted). In short, it runs like this: as §1
Another assay concerns HCT-116. Description: Cellular proliferation assay (Alamar blue), HCT-116. The assay is classed as cell-based. Particulars: Homo sapiens, HCT-116, 72 h, HCT-116 cells, 72 hours with compound, 10% FCS, read-out: pIC50 HCT-116 (converted). Summed up:
as §1

The target in another assay is GSK3β (h) (Homo sapiens, UniProt P49841). The experiment in a line: GSK-3β human kinase assay (SPA). The assay is classed as biochemical. The conditions noted are these: read-out: GSK3B pIC50 (converted). In short, it runs like this: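 Radiometric SPA read-out: after EDTA stop, biotinylated 33P-labelled peptide bound streptavidin PVT beads and was imaged on Leadseeker. Reaction: 60 min, room temperature, GSK3β (h) at 1 μg/ml, 1 μM substrate peptide, 1 μM ATP with 2 nM [γ-33P]ATP, Tris pH 7.4/MgCl2/DTT buffer.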

In the next assay the test system is PC-3. Description: Cellular proliferation assay (Alamar blue), PC-3. The assay is classed as cell-based. Particulars: Homo sapiens, PC-3, 72 h, PC-3 cells, 72 hours with compound, 10% FCS, read-out: pIC50 PC-3 (converted). Summed up: as §1
Another assay deals with MCF-7. The experiment in a line: Cellular proliferation assay (Alamar blue), MCF-7. The format is cell-based. The conditions noted are these: Homo sapiens, MCF7, MCF-7 cells, 72 hours with compound, 10% FCS, read-out: pIC50 MCF-7 (converted). In short, it runs like this:
as §1

Another assay concerns MDA/MB231. Description: Cellular proliferation assay (Alamar blue), MDA/MB231. The assay is classed as cell-based. Particulars: Homo sapiens, MDA-MB-231, 72 h, MDA/MB231 cells, 72 hours with compound, 10% FCS, read-out: pIC50 MDA/MB231 (converted). In short, it runs like this:
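Viable cell counts come from an Alamar blue assay: resazurin 9 μg/ml plus 90 μM K-ferrocyanide and 90 μM K-ferricyanide, incubated 24 h for MDA-MB-231 or 4 h for H460, with fluorescence read at 544/590 nm. Compound treatment lasted 72 h in 10% FCS after 24 h seeding.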

The subject of a further assay is SK-N-SH. The experiment in a line: Cellular proliferation assay (Alamar blue), SK-N-SH. The format is cell-based. The conditions noted are these: Homo sapiens, SK-N-SH cells, 72 hours with compound, 10% FCS, read-out: pIC50 SK-N-SH (converted). Summed up: as §1
For the next assay, the system named is SKOV3. The experiment in a line: Cellular proliferation assay (Alamar blue), SKOV3. The assay is classed as cell-based. Particulars: Homo sapiens, SK-OV-3, SKOV3 cells, 72 hours with compound, 10% FCS, read-out: pIC50 SKOV3 (converted). Summed up:
as §1

“And” between values parts separate entries of the source, which are not always exact repeats. Equal values may be shown once.

Chain of GSK3β (h) (P49841 whole entry): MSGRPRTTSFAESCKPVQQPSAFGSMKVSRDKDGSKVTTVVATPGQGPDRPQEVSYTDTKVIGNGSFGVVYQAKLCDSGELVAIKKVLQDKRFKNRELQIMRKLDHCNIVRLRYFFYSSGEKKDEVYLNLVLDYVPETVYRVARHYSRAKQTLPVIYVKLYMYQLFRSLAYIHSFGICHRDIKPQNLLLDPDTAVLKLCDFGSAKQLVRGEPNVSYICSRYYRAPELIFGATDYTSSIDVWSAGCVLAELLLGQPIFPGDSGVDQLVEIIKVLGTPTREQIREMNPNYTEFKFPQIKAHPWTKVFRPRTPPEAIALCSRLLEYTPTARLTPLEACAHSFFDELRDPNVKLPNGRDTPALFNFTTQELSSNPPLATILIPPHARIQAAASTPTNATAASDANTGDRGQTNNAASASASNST
Chain of AuroraB (h) (Q96GD4 whole entry): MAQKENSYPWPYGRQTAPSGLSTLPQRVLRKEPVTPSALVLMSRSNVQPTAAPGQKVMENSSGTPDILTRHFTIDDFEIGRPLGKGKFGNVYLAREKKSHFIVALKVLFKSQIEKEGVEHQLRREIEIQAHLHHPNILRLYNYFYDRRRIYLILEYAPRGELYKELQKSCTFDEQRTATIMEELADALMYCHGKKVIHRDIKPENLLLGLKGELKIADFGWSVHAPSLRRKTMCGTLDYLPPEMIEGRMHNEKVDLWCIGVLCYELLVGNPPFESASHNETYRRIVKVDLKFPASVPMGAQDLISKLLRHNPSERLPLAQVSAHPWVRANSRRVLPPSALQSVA

On to `COc1ccc2cc1OCCCC(=O)N(C)CCCNc1ncnc3c1/C(=C/N2)C(=O)N3` [Compound 9], for which the IC50 is 525 nM in the assay on HT-29; 354 nM in the assay on Colo205; 407 nM in the assay with H1299; 50.1 nM and 51.3 nM on AuroraB (h); 372 nM in the assay on H460; less than 302 nM with DU-145. Also, the IC50 is 457 nM in the assay on HCT-116; 20.9 nM and 23.4 nM at GSK3β (h); 457 nM with PC-3; less than 302 nM with MCF-7; 1380 nM with MDA/MB231; less than 302 nM with SK-N-SH. The IC50 in the assay on SKOV3 was 339 nM.

For the compound `COc1ccc2cc1OCCCCCC(=O)N1CCN(CC1)c1ncnc3c1/C(=C/N2)C(=O)N3` [Compound 18], the IC50 with HT-29, in the assay on Colo205, in the assay on H1299, on AuroraB (h), with H460 and in the assay with DU-145 was greater than 10000 nM in each case. The IC50 was greater than 10000 nM in the assay on HCT-116; 891 nM on GSK3β (h); 2340 nM in the assay on PC-3; 5750 nM in the assay on MCF-7; greater than 10000 nM with MDA/MB231; greater than 10000 nM in the assay with SK-N-SH. Moreover, the IC50 in the assay on SKOV3 was 2090 nM.

Take `COc1ccc2cc1OCCCC(=O)N(C)CCCN(C)c1ncnc3c1/C(=C/N2)C(=O)N3` [Compound 31]: the IC50 in the assay with HT-29 was 2820 nM; in the assay on Colo205 it was 1950 nM; with H1299, 646 nM; on AuroraB (h) it was 1380 nM and 1580 nM; with H460, 1000 nM; in the assay on DU-145 it was 1230 nM. In addition, the IC50 with HCT-116 is 1580 nM; at GSK3β (h), 309 nM and 313 nM; in the assay with PC-3, 1660 nM; in the assay with MCF-7, 575 nM; with MDA/MB231 it was 1910 nM; in the assay with SK-N-SH, less than 302 nM. Also, in the assay on SKOV3, the IC50 was 1350 nM.

Source of the values: patent publication US8338422B2, “Indolin-2-ones and aza-indolin-2-ones” (Janssen Pharmaceutica NV, priority 2007, dated 2012).
